Some test systems named below: HS 578T breast; A549 NSCLC; BT-549 breast; SW-620 colon; HOP-92 NSCLC; HOP-62 NSCLC; MDA-MB-435; NCI-H522 lung; SK-MEL-5 melanoma; LOX IMVI melanoma.
What all share (experiment): NCI anticancer screen, dose series, 48 h

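These data come from cells grown in 96-well plates and exposed to compound for 48 hours at five concentrations. GI50 marks 50% less growth. TGI: total growth inhibition.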

With `N/C(=N/N=C/c1ccccc1)N/N=C\c1ccccc1`, the GI50 is 3.73 µM in the assay on HS 578T breast; 3.79 µM with A549 NSCLC; 7.2 µM in the assay on BT-549 breast; 3.86 µM in the assay with SW-620 colon; 2.52 µM in the assay with HOP-92 NSCLC; 9.71 µM in the assay on HOP-62 NSCLC. Further, the GI50 was 1.76 µM in the assay on MDA-MB-435, 5.23 µM with NCI-H522 lung, 3.38 µM in the assay on SK-MEL-5 melanoma and 6.27 µM with LOX IMVI melanoma. In addition, the TGI is 42.5 µM with HS 578T breast; above 100 µM in the assay with A549 NSCLC; 46.4 µM with BT-549 breast; above 100 µM in the assay on SW-620 colon; 42.2 µM in the assay on HOP-92 NSCLC; above 100 µM in the assay on HOP-62 NSCLC. The TGI was 6.61 µM with MDA-MB-435, above 100 µM with NCI-H522 lung, 13.3 µM in the assay with SK-MEL-5 melanoma and 84.7 µM with LOX IMVI melanoma.
Consider `C[C@@H]1CCC([C@@H](C)[C@H]2CC[C@H]3[C@@H]4CC[C@H]5C[C@@H](O)CC[C@]5(C)[C@H]4CC[C@]23C)=NC1`, for which the TGI in the assay on HS 578T breast is above 100 µM; in the assay on A549 NSCLC it was above 100 µM; in the assay on BT-549 breast, above 85 µM; in the assay on SW-620 colon, above 100 µM; in the assay with HOP-92 NSCLC, above 100 µM; in the assay with HOP-62 NSCLC, above 51.3 µM. The TGI was above 100 µM with MDA-MB-435, 30.7 µM in the assay on NCI-H522 lung, 42.8 µM in the assay with SK-MEL-5 melanoma and above 100 µM in the assay on LOX IMVI melanoma.
For the molecule `CCCCCCCCCCCCSC1=C(Cl)C(=O)C(OC)=C(OC)C1=O`, the GI50 was 2.76 µM with HS 578T breast; 4.39 µM with A549 NSCLC; 1.2 µM in the assay on BT-549 breast; 0.63 µM in the assay with SW-620 colon; 2.67 µM in the assay with HOP-92 NSCLC; 6.07 µM with HOP-62 NSCLC. In addition, the GI50 in the assay on MDA-MB-435 is 0.653 µM; with NCI-H522 lung, 0.379 µM; in the assay with SK-MEL-5 melanoma, 0.49 µM; in the assay with LOX IMVI melanoma it was 0.462 µM. Also, the TGI was 7.96 µM in the assay on HS 578T breast; 21.1 µM with A549 NSCLC; 9.35 µM with BT-549 breast; 17.5 µM in the assay on SW-620 colon; 16.3 µM in the assay with HOP-92 NSCLC; 18.5 µM in the assay on HOP-62 NSCLC. For the same molecule, the TGI with MDA-MB-435 was 10.2 µM; in the assay with NCI-H522 lung it was 3.75 µM; in the assay with SK-MEL-5 melanoma it was 3.66 µM; in the assay with LOX IMVI melanoma, 5.38 µM.

For the origin of these results see PubChem BioAssay (NCI).
